Source: patent US9295697B2, “Episomal reprogramming with chemicals” (Cellular Dynamics International, Inc., priority 2009, dated 2016)

Experiments:
[1] = tested on: human foreskin fibroblasts; experiment: Episomal reprogramming of human foreskin fibroblasts with small molecules on MEF feeder cells, alkaline phosphatase positive colonies (Example 2); assay type: cell-based
Method: FIGS. 5A-5C. Improving episomal reprogramming efficiency with small molecules. FIG. 5A. Effects of PD0325901 (P, 0.5 μM), CHIR99021(C, 3 μM), A-83-01(A, 0.5 μM), hLIF (L, 1000 U/ml) and HA-100 (H, 10 μM) on episomal reprogramming. FIG. 5B Temporal requirement of small molecule treatment for improved episomal reprogramming. Transfected human foreskin fibroblasts were plated to MEF feeder cells. MEF-conditioned human ESC medium supplemented with 100 ng/ml bFGF (CM100) and small molecules was used to support reprogramming. Alkaline phosphatase positive iPSC colonies were counted on day 22-23 post-transfection. The number of iPSC colonies was from ˜0.33×10^6 input cells. Data shown are mean±standard error (s.e.m.) (n=3). FIG. 5C. Differentiation of the newly derived iPSCs (p3) in the presence of small molecules. […] The addition of bFGF in the culture medium had no effect. Black arrow: undifferentiated iPSC colonies; white arrows: differentiated colonies. Scale bars: 100 μm.
FIGS. 6A-6D. Developing feeder-free conditions for episomal reprogramming. FIG. 6A. Effects of MEF feeder cells, Matrigel™ and culture media on episomal reprogramming. Transfected human foreskin fibroblasts (p6) were plated to MEF feeder cell-seeded or Matrigel™-coated 10-cm dishes, and subjected to different reprogramming culture conditions. Alkaline phosphatase positive (AP^+) colonies were counted on day 18-21 post-transfection. The number of AP+ colonies was from ˜0.33×10^6 input cells. Data shown are mean±s.e.m. (n=3). N2B27: DMEM/F12 medium supplemented with N-2 and B-27; N2B27-100: N2B27 medium supplemented with 100 ng/ml bFGF. *marks piPSCs. FIG. 6B. Bright-field images of a piPSC colony from test 2 and a human ESC-like iPSC colony from test 1, 3 and 4. Scale bars: 100 μm. FIG. 6C. Quantitative RT-PCR analysis of OCT4 and NANOG expression in piPSC clone 1 to 4 (p3). Total: both endogenous and transgene expression. Human H1 ESCs (H1ESC, p32) were used as a control. Data shown are mean±s.e.m. (n=3). FIG. 6D. Temporal requirement of small molecule treatment for feeder-free episomal reprogramming using defined culture media. Transfected human foreskin fibroblasts (p7) were plated to Matrigel™-coated 10-cm dishes. N2B27-100 medium supplemented with PCALH was used to support reprogramming for different time windows (stage 2) followed by mTeSR1 for expansion. Alkaline phosphatase positive iPSC colonies were counted on day 22 post-transfection. The number of iPSC colonies was from ˜0.33×10^6 input cells. Data shown are mean±s.e.m. (n=3).
Episomal reprogramming vectors containing expression cassettes for human OCT4, SOX2, NANOG, LIN28, c-MYC, KLF4 and SV40LT transgenes were as previously described (Yu et al., 2009). Specifically, vector pEP4EO2SCK2MEN2L and pEP4EO2SET2K (combination 4) were used for reprogramming optimization. About 7.3 μg of vector pEP4EO2SCK2MEN2L and 3.2 μg of pEP4EO2SET2K were co-transfected into human neonatal foreskin fibroblasts via nucleofection (NHDF-VPD-1001 with U-20 program, Amaxa, Walkersville, Md.). Transfected fibroblasts (˜1.0×10^6 cells per nucleofection) were plated directly to 3×10-cm MEF-seeded dishes or 3×10-cm Matrigel™-coated dishes in fibroblast culture medium. The next day after transfection, fibroblast medium was replaced with MEF-conditioned human ESC medium supplemented with 100 ng/ml zbFGF (CM100), or chemically defined N2B27 medium (N2B27), or N2B27 medium supplemented with 100 ng/ml zbFGF (N2B27-100), or mTeSR1. The N2B27 medium consists of DMEM/F12 culture medium supplemented with N-2 supplement (1×, Invitrogen), B-27 supplement (1×, Invitrogen), 0.1 mM non-essential amino acids, 1 mM GlutaMAX, and 0.1 mM β-mercaptoethanol. Where applied, small molecules PD0325901 (P, 0.5 μM), CHIR99021(C, 3 μM), A-83-01(A, 0.5 μM) (all from Stemgent, San Diego, Calif.), hLIF (L, 1000 U/ml, Millipore, Billerica, Mass.) and HA-100 (H, 10 μM) were added to reprogramming culture. Culture medium was refreshed every two days. […]

[2] = tested on: human foreskin fibroblasts; experiment: Episomal reprogramming of human foreskin fibroblasts with chemical compounds on MEF feeders, alkaline phosphatase positive iPS cell colonies (Example 1); assay type: cell-based; conditions: for effect on episomal reprogramming when added to PD0325901, CHIR99021 and A-83-01: in combination with PD0325901 (0.5 μM), CHIR99021 (3 μM), A-83-01 (0.5 μM)
From the text: FIGS. 1A-1C. Improving episomal reprogramming of human foreskin fibroblasts with small chemical compounds. FIG. 1A. Episomal reprogramming vectors. pEF: the eukaryotic elongation factor 1α promoter; pCMV: the cytomegalovirus immediate-early promoter. Transgenes and other features of vectors are indicated by different colors as shown. FIG. 1B. Effects of different combinations of chemical compounds on episomal reprogramming efficiency. FF medium: human foreskin fibroblast culture medium; CM: human ES cell culture medium previously conditioned with irradiated mouse embryonic fibroblast feeder cells. bFGF was used at 100 ng/ml final concentration. B: BIX01294 (1 μM); P: PD0325901 (0.5 μM); C: CHIR99021 (3 μM); A: A-83-01 (0.5 μM). Total: total # of alkaline phosphatase positive iPS cell colonies; Large: # of large-size good undifferentiated alkaline phosphatase positive iPS cell colonies. FIG. 1C. Images of a good iPS cell colony obtained by episomal reprogramming in the presence of chemical compounds. Left: bright-field; right: alkaline phosphatase staining.
FIGS. 2A-2B. Improving episomal reprogramming of human foreskin fibroblasts with small chemical compounds. FIG. 2A. Effects of bFGF and different combinations of chemical compounds on episomal reprogramming efficiency. FF medium: human foreskin fibroblast culture medium; CM: human ES cell culture medium previously conditioned with irradiated mouse embryonic fibroblast feeder cells. bFGF was used at 100 ng/ml final concentration. H: HA-100 (10 μM); B: BIX01294 (1 μM); P: PD0325901 (0.5 μM); C: CHIR99021 (3 μM); A: A-83-01 (0.5 μM); L: hLIF (10 ng/ml). Total: total # of alkaline phosphatase positive iPS cell colonies; Large: # of large-size good undifferentiated alkaline phosphatase positive iPS cell colonies. FIG. 2B. Timing of chemical compound treatment on episomal reprogramming efficiency. CM supplemented with bFGF (100 ng/ml) and HA-100 (10 μM) was used in reprogramming culture.
FIGS. 4A-4B. Episomal reprogramming in defined medium supplemented with chemical compounds. FIG. 4A. Effect of different culture medium on episomal reprogramming in the presence of PD0325901 (0.5 μM), CHIR99021 (3 μM), A-83-01 (0.5 μM) and hLIF (10 ng/ml). FF medium: human foreskin fibroblast culture medium; CM: human ES cell culture medium previously conditioned with irradiated mouse embryonic fibroblast feeder cells. bFGF was used at 100 ng/ml final concentration. H: HA-100 (10 μM); B: BIX01294 (1 μM); P: PD0325901 (0.5 μM); C: CHIR99021 (3 μM); A: A-83-01 (0.5 μM); L: hLIF (10 ng/ml). Total: total # of alkaline phosphatase positive iPS cell colonies; Large: # of large-size good undifferentiated alkaline phosphatase positive iPS cell colonies. FIG. 4B. Sketch of the three-step reprogramming process for the derivation of normal human ES cell-like iPS cells and piPS cells.
For episomal reprogramming of human somatic cells, human foreskin fibroblasts, episomal vectors (FIG. 1A, 7.3 μg of pEP4EO2SCK2MEN2L and 3.2 μg of pEP4EO2SET2K) (Yu et al., 2009) were cotransfected into 1×10^6 cells via nucleofection (NHDF-VPD-1001 with program U-20, Amaxa, Walkersville, Md.). Transfected foreskin fibroblasts from each nucleofection were directly plated to 3×10-cm MEF-seeded dishes in fibroblast culture medium. For adult skin fibroblasts, 7.3 μg of pEP4EO2SCK2MEN2L and 6.4 μg of pEP4EO2SET2K were cotransfected into 1×10^6 cells via nucleofection (NHDF-VPD-1001 with program U-20, Amaxa). Transfected adult skin fibroblasts from each nucleofection were directly plated to 1×10-cm MEF-seeded dish in fibroblast culture medium due to lower cell survival. […]

[3] = LIF added to PD0325901, CHIR99021 and A-83-01

Cc1cccc(-c2nn(C(=S)Nc3ccccc3)cc2-c2ccnc3ccccc23)n1 [A-83-01, 3-(6-Methyl-2-pyridinyl)-N-phenyl-4-(4-quinolinyl)-1H-pyrazole-1-carbothioamide]
effect on episomal reprogramming, alone / on its own ([1]; CM100, MEF feeder cells): minimal effect | effect on episomal reprogramming, together with the MEK inhibitor PD0325901 ([1]; CM100, MEF feeder cells): minimal effect

COc1cc2nc(N3CCCN(C)CC3)nc(NC3CCN(Cc4ccccc4)CC3)c2cc1OC [BIX01294]
effect on reprogramming by episomal vectors, compound on its own ([2]; BIX01294 1 μM): could improve reprogramming | effect on episomal reprogramming when added to PD0325901, CHIR99021 and A-83-01 [2]: no or only slight benefit

Cc1cncc2cccc(S(=O)(=O)N3CCCNC[C@@H]3C)c12 [H-1152]
replacement of HA-100 in episomal reprogramming [1]: could not be replaced

O=S(=O)(c1cccc2cnccc12)N1CCNCC1 [HA-100]
effect on episomal reprogramming, alone / on its own ([1]; CM100, MEF feeder cells): minimal effect | episomal reprogramming efficiency in the presence of PD0325901, CHIR99021, A-83-01 and hLIF ([1]; HA-100 10 μM): further increased

Cc1ccc2c(c1)C(=O)C1(O)CCN(c3ccccc3)C1=N2 (centres unmarked) [blebbistatin]
replacement of HA-100 in episomal reprogramming [1]: could not be replaced

hLIF: human leukemia inhibitory factor
effect of hLIF on episomal reprogramming efficiency ([1]; hLIF 1000 U/ml): did not significantly improve | proliferation of reprogramming intermediates ([1]; hLIF 1000 U/ml): increased | first appearance of iPS cells, day post transfection [2, 3]: ~14 days | first appearance of iPS cells, earlier by [2, 3]: 3 to 4 days | large iPS cell colonies [2, 3]: more large iPS cell colonies | effect on episomal reprogramming when added to PD0325901, CHIR99021 and A-83-01 [2]: further facilitated
